Here are results for 33 molecules from ChEMBL document CHEMBL4834451, “Anti-chronic myeloid leukemia activity and quantitative structure-activity relationship of novel thiazole aminobenzamide derivatives” (Bioorg Med Chem Lett, 2021).

Assay [1] is described as follows: Antiproliferative activity against imatinib-resistant human K562R cells by MTS assay. In kind it is functional, cell-based.
Another assay relates to K562. The assay can be described thus: Antiproliferative activity against human K562 cells by MTS assay. In kind it is functional, cell-based.
The next assay has as its system L02. As to the kind of experiment: Antiproliferative activity against human L02 cells by MTS assay. In kind it is cell-based.
The next assay deals with BaF3. The assay can be described thus: Antiproliferative activity against mouse BaF3 cells harbouring BCR-ABL T315I mutant by MTS assay. The class given is cell-based.
Setting [2] is: K562, read-out: pIC50 (converted).

Bounds are passed on as bounds.

In the case of `Cc1ccc(-c2nc(Nc3cccc(C(=O)NCC(=O)O)c3)sc2C)cc1`, the IC50 is more than 100 µM in assay [1] (K562, read-out: IC50); more than 100 µM with K562; more than 100 µM in the assay with L02.

As for `CCc1sc(Nc2cccc(C(=O)NCC(C)=O)c2)nc1-c1ccc(Cl)cc1`, the IC50 in assay [1] (K562, read-out: IC50) is more than 100 µM; in the assay with K562, more than 100 µM; in the assay with L02, more than 100 µM.

For `CC(=O)CNC(=O)c1cccc(Nc2nc(-c3ccc(C)cc3)c(C)s2)c1`, the IC50 in assay [1] (K562, read-out: IC50) was 50.2 µM; in assay [1] (setting [2]) it was 50.2 µM; in the assay on K562 it was more than 100 µM; with L02 it was more than 100 µM.

For `Cc1sc(Nc2cccc(C(=O)NCC(=O)O)c2)nc1-c1ccccc1`, the IC50 in assay [1] (K562, read-out: IC50) was 61.7 µM; in assay [1] (setting [2]) it was 61.7 µM; in the assay on K562, 57.6 µM; with L02, more than 100 µM.

Turning to `Cc1sc(Nc2cccc(C(=O)NCC(=O)O)c2)nc1-c1ccc(O)cc1`, the IC50 in assay [1] (K562, read-out: IC50) is more than 100 µM; in the assay with K562, 71.8 µM; in the assay with L02 it was more than 100 µM.

For the molecule `CCc1sc(Nc2cccc(C(=O)N[C@@H](Cc3ccccc3)C(=O)O)c2)nc1-c1ccccc1`, the IC50 was 78 µM in assay [1] (K562, read-out: IC50); 78 µM in assay [1] (setting [2]); 93.3 µM with K562; more than 100 µM in the assay with L02.

As to `CCc1sc(Nc2cccc(C(=O)N[C@@H](Cc3ccccc3)C(=O)O)c2)nc1-c1ccc(Cl)cc1`, the IC50 in assay [1] (K562, read-out: IC50) is more than 100 µM; in the assay with K562, more than 100 µM; in the assay on L02, more than 100 µM.

Turning to `Cc1sc(Nc2cccc(C(=O)N[C@@H](Cc3ccccc3)C(=O)O)c2)nc1-c1ccc(F)cc1`, the IC50 in assay [1] (K562, read-out: IC50) was 41.3 µM; in assay [1] (setting [2]), 41.3 µM; in the assay with K562 it was 79.5 µM; with L02 it was more than 100 µM.

In the case of `Cc1sc(Nc2cccc(C(=O)N[C@@H](Cc3ccccc3)C(=O)O)c2)nc1-c1ccc(Cl)cc1`, the IC50 is 48.1 µM in assay [1] (K562, read-out: IC50); 48.1 µM in assay [1] (setting [2]); 51 µM in the assay on K562; more than 100 µM in the assay on L02.

With `CCc1sc(Nc2cccc(C(=O)N[C@@H](Cc3ccccc3)C(C)=O)c2)nc1-c1ccccc1`, the IC50 in assay [1] (K562, read-out: IC50) is 17.2 µM; in assay [1] (setting [2]), 17.2 µM; in the assay on K562 it was more than 100 µM; in the assay with L02 it was more than 100 µM.

Consider `CC(=O)[C@H](Cc1ccccc1)NC(=O)c1cccc(Nc2nc(-c3ccc(C(F)(F)F)cc3)c(C)s2)c1`, for which the IC50 in the assay on BaF3 is 19.8 µM; in assay [1] (K562, read-out: IC50) it was 8.47 µM; in assay [1] (setting [2]), 8.47 µM; in the assay on K562, 28.7 µM; with L02 it was more than 100 µM.

Regarding `CC(=O)CNC(=O)c1cccc(Nc2nc(-c3ccc(C(F)(F)F)cc3)c(C)s2)c1`, the IC50 in assay [1] (K562, read-out: IC50) is 35.4 µM; in assay [1] (setting [2]) it was 35.4 µM; in the assay on K562, 40.9 µM; in the assay on L02, more than 100 µM.

Regarding `Cc1sc(Nc2cccc(C(=O)N[C@@H](Cc3ccccc3)C(=O)O)c2)nc1-c1ccc(C(F)(F)F)cc1`, the IC50 in assay [1] (K562, read-out: IC50) is 78.1 µM; in assay [1] (setting [2]), 78.2 µM; in the assay with K562, 44.1 µM; in the assay on L02, more than 100 µM.

Take `Cc1sc(Nc2cccc(C(=O)NCC(=O)O)c2)nc1-c1ccc(F)cc1`: the IC50 with BaF3 was more than 64 µM; in assay [1] (K562, read-out: IC50), more than 100 µM; with K562, 87.8 µM; in the assay with L02, more than 100 µM.

Regarding `CC(=O)CNC(=O)c1cccc(Nc2nc(-c3ccc(Cl)cc3)c(C)s2)c1`, the IC50 in assay [1] (K562, read-out: IC50) was more than 100 µM; with K562, more than 100 µM; with L02, more than 100 µM.

Take `Cc1sc(Nc2cccc(C(=O)N[C@@H](Cc3ccccc3)C(=O)O)c2)nc1-c1ccc(O)cc1`: the IC50 in assay [1] (K562, read-out: IC50) was 62.9 µM; in assay [1] (setting [2]), 63 µM; in the assay with K562, 68.9 µM; with L02, more than 100 µM.

As for `CC(=O)[C@H](Cc1ccccc1)NC(=O)c1cccc(Nc2nc(-c3ccc(C)cc3)c(C)s2)c1`, the IC50 in assay [1] (K562, read-out: IC50) was 14.7 µM; in assay [1] (setting [2]), 14.7 µM; with K562, 83.6 µM; with L02, more than 100 µM.

In the case of `CC(=O)[C@H](Cc1ccccc1)NC(=O)c1cccc(Nc2nc(-c3ccccc3)c(C)s2)c1`, the IC50 in assay [1] (K562, read-out: IC50) was 30.2 µM; in assay [1] (setting [2]) it was 30.2 µM; in the assay with K562, 53.1 µM; in the assay with L02, more than 100 µM.

Turning to `Cc1sc(Nc2cccc(C(=O)NCC(=O)O)c2)nc1-c1ccc(C(F)(F)F)cc1`, the IC50 with BaF3 is more than 64 µM; in assay [1] (K562, read-out: IC50), more than 100 µM; in the assay with K562, 34.8 µM; with L02, more than 100 µM.

Regarding `CC(=O)CNC(=O)c1cccc(Nc2nc(-c3ccccc3)c(C)s2)c1`, the IC50 is more than 100 µM in assay [1] (K562, read-out: IC50); more than 100 µM in the assay on K562; more than 100 µM in the assay with L02.

In the case of `CC(=O)[C@H](Cc1ccccc1)NC(=O)c1cccc(Nc2nc(-c3ccc(F)cc3)c(C)s2)c1`, the IC50 in the assay with BaF3 was 19.1 µM; in assay [1] (K562, read-out: IC50) it was 12.8 µM; in assay [1] (setting [2]), 12.9 µM; with K562, 28.6 µM; with L02 it was more than 100 µM.

As to `CC(=O)[C@H](Cc1ccccc1)NC(=O)c1cccc(Nc2nc(-c3ccc(Cl)cc3)c(C)s2)c1`, the IC50 is 11.3 µM in assay [1] (K562, read-out: IC50); 11.4 µM in assay [1] (setting [2]); 51.4 µM with K562; more than 100 µM with L02.

As for `CC(=O)CNC(=O)c1cccc(Nc2nc(-c3ccc(O)cc3)c(C)s2)c1`, the IC50 in the assay with BaF3 was more than 64 µM; in assay [1] (K562, read-out: IC50), 68.3 µM; in assay [1] (setting [2]), 68.2 µM; in the assay on K562, 66.3 µM; in the assay on L02, more than 100 µM.

Consider `Cc1sc(Nc2cccc(C(=O)NCC(=O)O)c2)nc1-c1ccc(Cl)cc1`, for which the IC50 in assay [1] (K562, read-out: IC50) was 71.5 µM; in assay [1] (setting [2]), 71.4 µM; with K562, 60.5 µM; in the assay with L02, more than 100 µM.

Take `CC(=O)CNC(=O)c1cccc(Nc2nc(-c3ccc(F)cc3)c(C)s2)c1`: the IC50 in assay [1] (K562, read-out: IC50) is more than 100 µM; in the assay with K562, more than 100 µM; in the assay with L02 it was more than 100 µM.

Take `CCc1sc(Nc2cccc(C(=O)NCC(=O)O)c2)nc1-c1ccc(Cl)cc1`: the IC50 in assay [1] (K562, read-out: IC50) is more than 100 µM; with K562 it was more than 100 µM; with L02, more than 100 µM.

Take `Cc1sc(Nc2cccc(C(=O)N[C@@H](Cc3ccccc3)C(=O)O)c2)nc1-c1ccccc1`: the IC50 in assay [1] (K562, read-out: IC50) was 86.8 µM; in assay [1] (setting [2]) it was 86.9 µM; in the assay on K562 it was 66 µM; with L02, more than 100 µM.

Turning to `Cc1ccc(NC(=O)c2ccc(CN3CCN(C)CC3)cc2)cc1Nc1nccc(-c2cccnc2)n1` [IMATINIB], the IC50 in assay [1] (K562, read-out: IC50) is more than 100 µM; in the assay on K562, 4.63 µM; in the assay on L02, more than 100 µM.

Take `Cc1ccc(-c2nc(Nc3cccc(C(=O)N[C@@H](Cc4ccccc4)C(=O)O)c3)sc2C)cc1`: the IC50 in assay [1] (K562, read-out: IC50) is 63.4 µM; in assay [1] (setting [2]), 63.4 µM; in the assay with K562, 48.8 µM; in the assay with L02, more than 100 µM.

Consider `CCc1sc(Nc2cccc(C(=O)NCC(C)=O)c2)nc1-c1ccccc1`, for which the IC50 in assay [1] (K562, read-out: IC50) is 17.6 µM; in assay [1] (setting [2]), 17.6 µM; in the assay with K562, 61.7 µM; in the assay on L02, more than 100 µM.

In the case of `CC(=O)[C@H](Cc1ccccc1)NC(=O)c1cccc(Nc2nc(-c3ccc(O)cc3)c(C)s2)c1`, the IC50 was 36.6 µM with BaF3; 7.31 µM in assay [1] (K562, read-out: IC50); 7.31 µM in assay [1] (setting [2]); 8.32 µM with K562; more than 100 µM in the assay with L02.

Regarding `CCc1sc(Nc2cccc(C(=O)NCC(=O)O)c2)nc1-c1ccccc1`, the IC50 in assay [1] (K562, read-out: IC50) was more than 100 µM; in the assay with K562, more than 100 µM; in the assay on L02, more than 100 µM.

In the case of `CCc1sc(Nc2cccc(C(=O)N[C@@H](Cc3ccccc3)C(C)=O)c2)nc1-c1ccc(Cl)cc1`, the IC50 in assay [1] (K562, read-out: IC50) is 15.9 µM; in assay [1] (setting [2]), 15.9 µM; with K562 it was more than 100 µM; with L02, more than 100 µM.
